What all share (type): toxicity, cell-based
The subject of one data set is HEK-293T. Briefly: Incucyte cell viability with HEK293T. The following applies: human, 10 µM, compound concentration 10 uM.
The subject of another data set is U2OS. Briefly: Incucyte cell viability with U2OS. To be noted: human, 10 µM, compound concentration 10 uM.
For the next data set, the system named is Fibroblast. Briefly: Incucyte cell viability with human fibroblast. To be noted: 10 µM, compound concentration 10 uM.
Setting [1] is: 0 h, replicate number 1, timepoint 0 hours.
[2] abbreviates: 6 h, replicate number 1, timepoint 6 hours.
[3] abbreviates: 12 h, replicate number 1, timepoint 12 hours.
Setting [4] is: 18 h, replicate number 1, timepoint 18 hours.
Setting [5] is: 24 h, replicate number 1, timepoint 24 hours.
Where [6] appears, read: 0 h, replicate number 2, timepoint 0 hours.
Where [7] appears, read: 12 h, replicate number 2, timepoint 12 hours.
Setting [8] is: 6 h, replicate number 2, timepoint 6 hours.
Setting [9] is: 18 h, replicate number 2, timepoint 18 hours.
Where [10] appears, read: 24 h, replicate number 2, timepoint 24 hours.
Note: filed as whole numbers so only -1 and 0 and 1 occur.

Regarding `Cc1cc(NC(=O)Nc2ccc(N(C)C)cc2)c2cc(F)cc(F)c2n1`, the “Growth Rate” value with HEK-293T (setting [1]), in the data set on HEK-293T (setting [2]), in the data set with HEK-293T (setting [3]), with HEK-293T (setting [4]), in the data set on HEK-293T (setting [5]) and in the data set on U2OS (setting [6]) was 0 throughout. For the same compound, the “Growth Rate” value in the data set with U2OS (setting [2]) came to 0; in the data set with U2OS (setting [3]) it was 0; in the data set with U2OS (setting [7]) it was 1; in the data set with U2OS (setting [4]), 0; in the data set with U2OS (setting [5]), 0; in the data set on Fibroblast (setting [1]), 1. Moreover, the “Growth Rate” value with Fibroblast (setting [2]) was determined as 0; in the data set with Fibroblast (setting [3]), 1; in the data set with Fibroblast (setting [4]) it was 1; with Fibroblast (setting [5]), 1.
For `CNc1nc(-c2ccc3c(N)n[nH]c3c2)cc(N2C[C@@H](C(=O)NC3CCCCC3)CC[C@H]2C)n1`, the “Growth Rate” value in the data set with HEK-293T (setting [1]) was 0; in the data set on HEK-293T (setting [6]), 1; in the data set on HEK-293T (setting [8]), 0; in the data set on HEK-293T (setting [7]) it was 0; in the data set with HEK-293T (setting [9]), 1; in the data set on HEK-293T (setting [5]), 1. Moreover, the “Growth Rate” value with HEK-293T (setting [10]) is on record as 0; in the data set on U2OS (setting [2]) it was 1; with U2OS (setting [3]) it was 0; in the data set with U2OS (setting [7]), 1; in the data set on U2OS (setting [4]), 0; in the data set with U2OS (setting [5]), 0. For the same compound, the “Growth Rate” value with Fibroblast (setting [1]) was 0; in the data set on Fibroblast (setting [2]), 1; in the data set on Fibroblast (setting [3]) it was 0; in the data set on Fibroblast (setting [4]), 0; in the data set with Fibroblast (setting [5]) it was 0.
In the case of `Oc1ccc(-c2nc3cc(O)cc(Br)c3o2)cc1`, the “Growth Rate” value is reported as 1 with HEK-293T (setting [1]); 0 in the data set with HEK-293T (setting [6]); 0 in the data set on HEK-293T (setting [2]); 1 in the data set on HEK-293T (setting [8]); 0 in the data set on HEK-293T (setting [3]); 1 in the data set on HEK-293T (setting [7]). The “Growth Rate” value with HEK-293T (setting [4]) is 1; with HEK-293T (setting [5]), 0; in the data set on U2OS (setting [8]) it was 0; in the data set with U2OS (setting [3]), 1; with U2OS (setting [7]), 0; in the data set on U2OS (setting [4]), 1. For the same compound, the “Growth Rate” value came out at 1 in the data set with U2OS (setting [5]); 0 with Fibroblast (setting [1]); 0 in the data set with Fibroblast (setting [2]); 1 with Fibroblast (setting [4]); 1 in the data set with Fibroblast (setting [5]).
For `O=C(O)COc1cccc(CN(Cc2ccc(-n3cccn3)cc2)S(=O)(=O)c2cccnc2)c1`, the “Growth Rate” value with HEK-293T (setting [1]) was found to be 0; in the data set on HEK-293T (setting [2]), 1; in the data set with HEK-293T (setting [3]), 1; with HEK-293T (setting [4]), 1; with HEK-293T (setting [5]), 1; in the data set with U2OS (setting [1]), 0. In addition, the “Growth Rate” value in the data set with U2OS (setting [8]) was found to be 0; in the data set with U2OS (setting [3]), 1; with U2OS (setting [7]) it was 0; in the data set on U2OS (setting [4]) it was 1; in the data set on U2OS (setting [9]), 0; with U2OS (setting [5]), 1. The “Growth Rate” value with U2OS (setting [10]) is listed as 0; with Fibroblast (setting [1]), 1; in the data set with Fibroblast (setting [2]), 0; with Fibroblast (setting [3]), 1; with Fibroblast (setting [4]) it was 1; in the data set on Fibroblast (setting [5]), 1.
With `O=C(Nc1cccnc1)c1cc(-c2ccnc(F)c2)ccc1OCc1ccccc1`, the “Growth Rate” value was 0 in the data set on HEK-293T (setting [1]); 1 in the data set with HEK-293T (setting [8]); 1 with HEK-293T (setting [7]); 1 in the data set on HEK-293T (setting [5]); 0 in the data set on HEK-293T (setting [10]); 0 in the data set on U2OS (setting [6]). Further, the “Growth Rate” value with U2OS (setting [2]) worked out at 1; in the data set with U2OS (setting [3]) it was 0; with U2OS (setting [4]), 0; in the data set with U2OS (setting [5]), 0; with U2OS (setting [10]), 1; with Fibroblast (setting [1]), 0. The “Growth Rate” value in the data set on Fibroblast (setting [2]) came to 0; in the data set on Fibroblast (setting [3]), 0; with Fibroblast (setting [4]), 0; in the data set with Fibroblast (setting [9]) it was 1; with Fibroblast (setting [5]), 0; in the data set on Fibroblast (setting [10]), 1.
For `CCc1cc2c(c(CC)n1)CCC(=O)N2Cc1ccc(-c2ccccc2-c2nnn[nH]2)cc1.Cl`, the “Growth Rate” value was 0 in the data set on HEK-293T (setting [1]); 1 in the data set with HEK-293T (setting [2]); 0 with HEK-293T (setting [8]); 1 in the data set with HEK-293T (setting [3]); 1 with HEK-293T (setting [4]); 0 in the data set with HEK-293T (setting [9]). Also, the “Growth Rate” value with HEK-293T (setting [5]) was determined as 1; in the data set on U2OS (setting [1]), 1; in the data set with U2OS (setting [6]), 0; in the data set on U2OS (setting [2]), 0; in the data set on U2OS (setting [3]), 0; in the data set on U2OS (setting [4]), 0. For the same compound, the “Growth Rate” value in the data set with U2OS (setting [5]) was 0; with U2OS (setting [10]) it was 1; with Fibroblast (setting [1]) it was 0; in the data set with Fibroblast (setting [2]), 0; in the data set on Fibroblast (setting [8]), 1; in the data set on Fibroblast (setting [3]), 0. The results for the “Growth Rate” value in the data set on Fibroblast (setting [4]), in the data set on Fibroblast (setting [9]) and in the data set with Fibroblast (setting [5]) were 0, 1 and 1, respectively.
For `CNc1nc(Nc2cnn([C@H]3CCN(C4COC4)C[C@@H]3F)c2Cl)ncc1C(F)(F)F`, the “Growth Rate” value with HEK-293T (setting [1]) is 0; in the data set on HEK-293T (setting [2]) it was 0; in the data set on HEK-293T (setting [3]) it was 0; in the data set on HEK-293T (setting [4]), 0; with HEK-293T (setting [5]), 0; with U2OS (setting [1]), 1. The “Growth Rate” value is 0 in the data set on U2OS (setting [2]); 1 in the data set on U2OS (setting [3]); 1 with U2OS (setting [4]); 0 with U2OS (setting [9]); 1 in the data set with U2OS (setting [5]); 0 with U2OS (setting [10]). Besides, the “Growth Rate” value in the data set with Fibroblast (setting [1]) was 0; in the data set on Fibroblast (setting [3]) it was 1; with Fibroblast (setting [4]) it was 1; with Fibroblast (setting [5]), 0; with Fibroblast (setting [10]), 1.
`COc1ccccc1C(=O)Nc1cc2c(cc1N1CCCC1)n(C)c(=O)n2C`: the “Growth Rate” value was 0 in the data set with HEK-293T (setting [1]); 1 with HEK-293T (setting [6]); 0 in the data set with HEK-293T (setting [2]); 1 with HEK-293T (setting [3]); 1 in the data set with HEK-293T (setting [4]); 1 in the data set on HEK-293T (setting [5]). Moreover, the “Growth Rate” value with U2OS (setting [1]) was 0; with Fibroblast (setting [1]), 0; in the data set with Fibroblast (setting [2]), 1; in the data set on Fibroblast (setting [8]) it was 0; in the data set with Fibroblast (setting [3]) it was 1; in the data set with Fibroblast (setting [7]), 0. Also, the “Growth Rate” value with Fibroblast (setting [4]) and in the data set with Fibroblast (setting [5]) was 1 each time.
For the compound `Cc1cc(C(=O)N2Cc3cnn(C)c3Nc3ccccc32)ccc1CNC(=O)N1CCC[C@H]1C(=S)N1CCCN(C)CC1`, the “Growth Rate” value with HEK-293T (setting [1]) amounted to 1; with HEK-293T (setting [6]), 0; with HEK-293T (setting [2]) it was 0; with HEK-293T (setting [8]), 1; with HEK-293T (setting [3]), 0; in the data set on HEK-293T (setting [7]), 1. For the same compound, the “Growth Rate” value in the data set with HEK-293T (setting [4]) turned out to be 0; in the data set on HEK-293T (setting [5]), 0; with U2OS (setting [6]) it was 0; in the data set on U2OS (setting [2]), 0; with U2OS (setting [3]), 0; in the data set on U2OS (setting [7]), 1. For the same compound, the “Growth Rate” value in the data set with U2OS (setting [4]) was 0; with U2OS (setting [9]), 1; in the data set on U2OS (setting [5]), 0; with Fibroblast (setting [1]), 0; with Fibroblast (setting [2]) it was 0; in the data set on Fibroblast (setting [3]), 1. In addition, the “Growth Rate” value in the data set on Fibroblast (setting [4]) was 0; in the data set with Fibroblast (setting [9]) it was 1; in the data set with Fibroblast (setting [5]), 0.
On to `Clc1cc2c(NC3CCCC3)nnc(-c3ccncc3)c2cc1Cl`, for which the “Growth Rate” value in the data set with HEK-293T (setting [1]) amounted to 1; in the data set with HEK-293T (setting [6]) it was 0; in the data set on HEK-293T (setting [3]), 1; in the data set with HEK-293T (setting [4]), 1; in the data set on HEK-293T (setting [5]) it was 1; in the data set with U2OS (setting [1]) it was 1. For the same compound, the “Growth Rate” value in the data set on U2OS (setting [2]) is reported as 0; with U2OS (setting [8]), 1; with U2OS (setting [3]), 1; in the data set with U2OS (setting [4]), 0; in the data set with U2OS (setting [9]) it was 1; in the data set on U2OS (setting [5]), 0. Further, the “Growth Rate” value in the data set on U2OS (setting [10]) came to 1; in the data set on Fibroblast (setting [1]), 0; with Fibroblast (setting [2]) it was 0; in the data set on Fibroblast (setting [3]), 1; in the data set on Fibroblast (setting [4]), 1; with Fibroblast (setting [5]), 1.
`O=C(NC[C@H](O)CN1CCc2ccccc2C1)c1ccnc(NC2CCC2)c1`: the “Growth Rate” value in the data set on HEK-293T (setting [1]) was 1; in the data set on HEK-293T (setting [6]), 0; with HEK-293T (setting [10]) it was 1; with U2OS (setting [1]) it was 1; in the data set on U2OS (setting [6]), 0; in the data set on U2OS (setting [2]), 0. Moreover, the “Growth Rate” value is given as 1 in the data set on U2OS (setting [8]); 0 in the data set on U2OS (setting [3]); 1 in the data set with U2OS (setting [7]); 0 in the data set on U2OS (setting [4]); 1 in the data set on U2OS (setting [9]); 0 in the data set on U2OS (setting [5]). Moreover, the “Growth Rate” value turned out to be 1 with U2OS (setting [10]); 0 in the data set on Fibroblast (setting [6]); 0 with Fibroblast (setting [2]); 0 with Fibroblast (setting [3]); 1 in the data set with Fibroblast (setting [7]); 0 in the data set on Fibroblast (setting [4]). The “Growth Rate” value in the data set on Fibroblast (setting [9]) and in the data set with Fibroblast (setting [5]) was 1 throughout.

The record behind these values is ChEMBL document CHEMBL4689842, “EUbOPEN Chemogenomics Library wave 1” (2021).
